Source: patent US20250346600A1, “TRICYCLIC DERIVATIVES AND RELATED USES” (MOMA Therapeutics, Inc., priority 2023, published 2025)

What was measured:
HCT116 cells = assay: HCT116 (MSI) 7 day viability, CellTiter Glo; format: cell-based; conditions: Homo sapiens, HCT-116, 168 h, 7 days, read-out: HCT116 (MSI) Viability 7 Day Abs AC50
Outline: (§1)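 Luminescence read-out (CellTiter Glo) after 7-day compound exposure at 37 °C. Seeding density 50 cells/well for HCT116, 500 cells/well for HT29. Background from cell-free medium wells; IC50 by four-parameter logistic fit, geometric mean of at least 2 replicates.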

HT29 cells = assay: HT29 (MSS) 7 day viability, CellTiter Glo; format: cell-based; conditions: Homo sapiens, HT-29, 168 h, 7 days, read-out: HT29 (MSS) Viability 7 Day CTGAbs AC50
Outline: as §1

[1] = molecular target: T1, Full length WRN protein (aa 2-1432) (Homo sapiens (Human), UniProt Q14191); assay: WRN ATPase ADP-Glo biochemical assay, Assay Format B (100 μM ATP); conditions: 0.25 nM WRN, 100 nM C6.18 ssDNA, 60 min preincubation, read-out: ATPase ADPGlo AC50 (uM)- Assay Format B
[2] = molecular target: T1, Full length WRN protein (aa 2-1432); assay: WRN ATPase ADP-Glo biochemical assay, Assay Format A (10 μM ATP); conditions: 0.25 nM WRN, 100 nM C6.18 ssDNA, 30 min preincubation, read-out: ATPase ADPGlo AC50 (uM)- Assay Format A
Outline: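 Sf9-expressed FLAG-AVI-TEV-tagged WRN (0.5 nM) preincubated 30 min with compound (11-point 3-fold dilution). Reaction started with 200 nM C6.18 39-mer ssDNA and 20 μM ATP (addition concentrations), run 30 min at room temperature. ADP measured by ADP-Glo luminescence; IC50 from four-parameter fit, geometric mean of ≥2 runs.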

T1 sequence (Q14191 2-1432): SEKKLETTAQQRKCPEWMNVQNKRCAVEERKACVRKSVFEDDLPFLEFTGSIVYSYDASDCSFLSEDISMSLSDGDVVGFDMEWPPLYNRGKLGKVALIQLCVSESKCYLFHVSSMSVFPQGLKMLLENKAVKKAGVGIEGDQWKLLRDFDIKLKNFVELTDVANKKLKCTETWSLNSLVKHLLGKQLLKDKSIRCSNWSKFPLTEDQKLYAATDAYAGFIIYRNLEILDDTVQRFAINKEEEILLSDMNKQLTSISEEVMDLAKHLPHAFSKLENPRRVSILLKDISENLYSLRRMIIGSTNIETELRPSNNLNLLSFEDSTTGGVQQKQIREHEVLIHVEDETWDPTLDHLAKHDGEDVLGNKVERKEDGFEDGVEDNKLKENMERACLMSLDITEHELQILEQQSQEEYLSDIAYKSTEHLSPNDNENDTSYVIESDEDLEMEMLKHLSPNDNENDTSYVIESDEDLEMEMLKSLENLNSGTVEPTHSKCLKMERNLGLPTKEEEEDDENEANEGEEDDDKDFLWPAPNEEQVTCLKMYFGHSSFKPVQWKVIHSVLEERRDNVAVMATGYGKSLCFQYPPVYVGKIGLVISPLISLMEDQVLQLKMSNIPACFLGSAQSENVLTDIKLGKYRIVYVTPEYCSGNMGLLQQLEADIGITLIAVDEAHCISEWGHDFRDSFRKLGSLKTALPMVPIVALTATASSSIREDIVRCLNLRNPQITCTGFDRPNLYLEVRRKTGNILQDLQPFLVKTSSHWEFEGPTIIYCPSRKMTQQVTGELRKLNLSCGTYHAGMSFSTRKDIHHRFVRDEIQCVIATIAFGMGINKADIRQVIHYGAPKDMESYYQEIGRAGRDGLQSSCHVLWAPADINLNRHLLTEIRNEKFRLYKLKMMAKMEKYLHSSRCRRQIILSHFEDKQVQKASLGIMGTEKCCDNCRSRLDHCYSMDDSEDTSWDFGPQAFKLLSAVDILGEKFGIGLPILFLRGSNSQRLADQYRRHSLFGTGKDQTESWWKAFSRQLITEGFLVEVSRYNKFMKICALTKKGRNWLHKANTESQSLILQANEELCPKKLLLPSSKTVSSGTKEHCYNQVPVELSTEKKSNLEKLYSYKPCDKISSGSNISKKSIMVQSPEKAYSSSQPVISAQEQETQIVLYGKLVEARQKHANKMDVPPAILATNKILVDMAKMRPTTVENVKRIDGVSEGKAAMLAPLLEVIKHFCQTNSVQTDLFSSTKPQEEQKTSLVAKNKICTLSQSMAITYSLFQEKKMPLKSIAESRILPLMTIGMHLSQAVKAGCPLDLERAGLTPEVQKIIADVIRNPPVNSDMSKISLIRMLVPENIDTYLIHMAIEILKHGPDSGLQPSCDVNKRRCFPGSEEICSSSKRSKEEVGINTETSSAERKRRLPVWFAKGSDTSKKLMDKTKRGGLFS

Compound	AC50 [1] [µM]	AC50 [2] [µM]	AC50 (HCT116 cells) [nM]	AC50 (HT29 cells) [nM]
C=CC(=O)N1CCc2nn(-c3ccc(C4CC4)cc3)c3c2C(C1)N(C(=O)c1ccc(C(F)(F)F)nc1N)CC3 (centres unmarked) [Compound 67, 1-(5-(2-amino-6-(trifluoromethyl)nicotinoyl)-2-(4-cyclopropylphenyl)-2,3,4,5,5a,6,8,9-octahydro-7H-1,2,5,7-tetraazabenzo[cd]azulen-7-yl)prop-2-en-1-one]	0.005 to 0.015	0.0015 to 0.005	1 to 100	> 3000
C=CC(=O)N1CCc2nn(-c3ccc(C4CC4)cc3)c3c2C(C1)N(C(=O)c1ccn(CC(F)(F)F)c(=O)c1)CC3 (centres unmarked) [Compound 68, 4-(7-acryloyl-2-(4-cyclopropylphenyl)-3,4,5,5a,6,7,8,9-octahydro-2H-1,2,5,7-tetraazabenzo[cd]azulene-5-carbonyl)-1-(2,2,2-trifluoroethyl)pyridin-2(1H)-one]	> 0.055	> 0.055	> 1000	> 3000
C=CC(=O)N1CCc2nn(-c3ccc(C4CC4)cc3)c3c2C(C1)N(C(=O)c1ccc(OC(F)F)nc1)CC3 (centres unmarked) [Compound 69, 1-(2-(4-cyclopropylphenyl)-5-(6-(difluoromethoxy)nicotinoyl)-2,3,4,5,5a,6,8,9-octahydro-7H-1,2,5,7-tetraazabenzo[cd]azulen-7-yl)prop-2-en-1-one]	0.015 to 0.055	0.005 to 0.015	100 to 250	> 3000
C=CC(=O)N1CCc2nn(-c3ccc(C4CC4)cc3)c3c2C(C1)N(C(=O)c1ccc2c(c1)[nH]c(=O)n2C)CC3 (centres unmarked) [Compound 70, 5-(7-acryloyl-2-(4-cyclopropylphenyl)-3,4,5,5a,6,7,8,9-octahydro-2H-1,2,5,7-tetraazabenzo[cd]azulene-5-carbonyl)-1-methyl-1,3-dihydro-2H-benzo[d]imidazol-2-one]	> 0.055	> 0.055	> 1000	> 3000
C=CC(=O)N1CC(OC)c2nn(-c3ccc(C4CCC4)cc3O)c3c2C(C1)N(C(=O)c1cnc(C(F)(F)F)c(O)c1)CC3 (centres unmarked) [Compound 72, 1-(2-(4-cyclobutyl-2-hydroxyphenyl)-5-(5-hydroxy-6-(trifluoromethyl)nicotinoyl)-9-methoxy-2,3,4,5,5a,6,8,9-octahydro-7H-1,2,5,7-tetraazabenzo[cd]azulen-7-yl)prop-2-en-1-one]	0.0015 to 0.005	< 0.0015	1 to 100	> 3000

More lines, main results first:

AC50 [1] [µM]	AC50 [2] [µM]	Compound	AC50 (HCT116 cells) [nM]	AC50 (HT29 cells) [nM]
0.015 to 0.055	0.0015 to 0.005	C=CC(=O)N1CCc2nn(-c3ccc(C(C)C)cc3)c3c2C(C1)N(C(=O)c1ccc(Br)c2ncn(CCOC)c12)CC3 (centres unmarked) [Compound 73, 1-(5-(4-bromo-1-(2-methoxyethyl)-1H-benzo[d]imidazole-7-carbonyl)-2-(4-isopropylphenyl)-2,3,4,5,5a,6,8,9-octahydro-7H-1,2,5,7-tetraazabenzo[cd]azulen-7-yl)prop-2-en-1-one]	100 to 250	> 3000
0.005 to 0.015	< 0.0015	C=CC(=O)N1CCc2nn(-c3ccc(C4CCC4)cc3O)c3c2C(C1)N(C(=O)c1ccc(OC(F)F)nc1)CC3 (centres unmarked) [Compound 74, 1-(2-(4-cyclobutyl-2-hydroxyphenyl)-5-(6-(difluoromethoxy)nicotinoyl)-2,3,4,5,5a,6,8,9-octahydro-7H-1,2,5,7-tetraazabenzo[cd]azulen-7-yl)prop-2-en-1-one]	1 to 100	> 3000
0.0015 to 0.005	< 0.0015	C=CC(=O)N1CCc2nn(-c3ccc(C4CCC4)cc3O)c3c2C(C1)N(C(=O)c1ccc(Br)c2[nH]c(CO)nc12)CC3 (centres unmarked) [Compound 75, 1-(5-(7-bromo-2-(hydroxymethyl)-1H-benzo[d]imidazole-4-carbonyl)-2-(4-cyclobutyl-2-hydroxyphenyl)-2,3,4,5,5a,6,8,9-octahydro-7H-1,2,5,7-tetraazabenzo[cd]azulen-7-yl)prop-2-en-1-one]	1 to 100	> 3000
